Source: ChEMBL document CHEMBL1131822, “Nonpeptidic HIV protease inhibitors: 6-alkyl-5,6-dihydropyran-2-ones possessing a novel and achiral 3-(2-t-butyl-5-methyl-4-sulfamate)phenylthio moiety” (Bioorg Med Chem Lett, 1999)

What was measured:
[1] = target: T1, Human immunodeficiency virus type 1 protease (Human immunodeficiency virus 1, UniProt Q72874); assay: Tested in vitro for HIV protease (PR) binding affinity
[2] = test system: Human immunodeficiency virus 1; assay: In vitro inhibition of HIV-1 (IIIB) cytopathic effects in CEM (human leukemia) cells.; type: functional, organism-based; details: Human immunodeficiency virus 1, CCRF-CEM
[3] = Therapeutic index was determined; details: read-out: Therapeutic index
[4] = In vitro Cytotoxicity against uninfected CEM (human leukemia) cells.; type: functional; details: CCRF-CEM, read-out: TC50 (the source's name)
CYP2C9 [5] = target: T2, CYP2C9 (Homo sapiens, UniProt P11712); assay: Inhibition of Cytochrome P450 2C9 at 10 uM; type: ADME
CYP3A4 [6] = target: T3, CYP3A4 (Homo sapiens, UniProt P08684); assay: Inhibition of Cytochrome P450 3A4 at 100 uM; type: ADME
CYP2D6 [7] = assay: Inhibition of Cytochrome P450 2D6 at 100 uM; type: ADME
CYP2D6 [8] = assay: Inhibition of Cytochrome P450 2D6 at 1 uM; type: ADME
CYP3A4 [9] = target: T3, CYP3A4; assay: Inhibition of Cytochrome P450 3A4 at 1 uM; type: ADME
CYP3A4 [10] = target: T3, CYP3A4; assay: Inhibition of Cytochrome P450 3A4 at 10 uM; type: ADME
CYP2C9 [11] = target: T2, CYP2C9; assay: Inhibition of Cytochrome P450 2C9 at 100 uM; type: ADME
CYP2D6 [12] = assay: Inhibition of Cytochrome P450 2D6 at 10 uM; type: ADME
CYP2C9 [13] = target: T2, CYP2C9; assay: Inhibition of Cytochrome P450 2C9 at 1 uM; type: ADME
[14] = target: T1, Human immunodeficiency virus type 1 protease; assay: Compound was tested for binding affinity against HIV protease

T2 sequence (P11712 whole entry): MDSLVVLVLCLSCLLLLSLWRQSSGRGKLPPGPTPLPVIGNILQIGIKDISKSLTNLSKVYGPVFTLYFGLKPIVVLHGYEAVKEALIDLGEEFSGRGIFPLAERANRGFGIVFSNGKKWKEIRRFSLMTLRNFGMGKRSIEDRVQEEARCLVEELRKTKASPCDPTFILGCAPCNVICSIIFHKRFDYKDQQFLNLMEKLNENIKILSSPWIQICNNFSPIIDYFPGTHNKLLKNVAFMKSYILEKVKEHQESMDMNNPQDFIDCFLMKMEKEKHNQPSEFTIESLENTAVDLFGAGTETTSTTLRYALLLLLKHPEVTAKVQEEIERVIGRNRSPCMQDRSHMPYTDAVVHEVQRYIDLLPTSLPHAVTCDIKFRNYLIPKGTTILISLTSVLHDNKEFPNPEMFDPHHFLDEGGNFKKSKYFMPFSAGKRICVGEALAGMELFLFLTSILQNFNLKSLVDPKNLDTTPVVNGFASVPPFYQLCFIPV
T3 sequence (P08684 whole entry): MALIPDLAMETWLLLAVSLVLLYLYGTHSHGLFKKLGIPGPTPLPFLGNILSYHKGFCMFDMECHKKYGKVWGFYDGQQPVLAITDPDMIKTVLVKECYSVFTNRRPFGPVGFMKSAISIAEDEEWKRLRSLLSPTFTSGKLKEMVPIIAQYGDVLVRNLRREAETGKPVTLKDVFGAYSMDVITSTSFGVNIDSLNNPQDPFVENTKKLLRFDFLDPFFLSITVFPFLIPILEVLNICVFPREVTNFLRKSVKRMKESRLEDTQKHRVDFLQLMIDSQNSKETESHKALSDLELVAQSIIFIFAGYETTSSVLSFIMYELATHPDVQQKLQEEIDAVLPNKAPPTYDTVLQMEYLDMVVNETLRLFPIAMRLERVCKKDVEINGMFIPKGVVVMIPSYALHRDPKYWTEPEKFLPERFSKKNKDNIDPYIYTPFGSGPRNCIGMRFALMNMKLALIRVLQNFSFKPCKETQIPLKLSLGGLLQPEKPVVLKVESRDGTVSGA

Row | Compound | IC50 [1] [nM] | EC50 [2] [nM] | inhibition at 100 µM (CYP3A4 [6]) [%] | inhibition at 100 µM (CYP2D6 [7]) [%] | inhibition at 1 µM (CYP2D6 [8]) [%] | inhibition at 1 µM (CYP3A4 [9]) [%] | inhibition at 10 µM (CYP3A4 [10]) [%] | inhibition at 10 µM (CYP2D6 [12]) [%] | selectivity ratio [3] | CC50 [4] [nM] | inhibition at 10 µM (CYP2C9 [5]) [%] | inhibition at 100 µM (CYP2C9 [11]) [%] | inhibition at 1 µM (CYP2C9 [13]) [%] | Ki [14] [nM]
1 | Cc1cc(SC2=C(O)OC(CCc3ccc(O)cc3)(C3CCCCC3)CC2=O)c(C(C)(C)C)cc1OS(=O)(=O)N(C)C (configuration not stated) | 20 | 5000 | – | – | – | – | – | – | 12 | 60000 | – | – | – | –
2 | Cc1cc(SC2=C(O)OC(C)(CCc3ccc(O)cc3)CC2=O)c(C(C)(C)C)cc1OS(=O)(=O)N(C)C (configuration not stated) | 1.6 | 8200 | – | – | – | – | – | – | > 12 | > 100000 | – | – | – | –
3 | CCNS(=O)(=O)Oc1cc(C(C)(C)C)c(SC2=C(O)OC(CCc3ccccc3)(C(C)C)CC2=O)cc1C (configuration not stated) | 8.9 | 770 | – | – | – | – | – | – | 87 | 67000 | – | – | – | –
4 | CCNS(=O)(=O)Oc1cc(C(C)(C)C)c(SC2=C(O)OC(C)(CCc3ccc(O)cc3)CC2=O)cc1C (configuration not stated) | 2.3 | 1500 | 58 | 100 | 62 | 1 | 10 | 89 | 44 | 66000 | 6 | 46 | 0 | –
5 | CCCNS(=O)(=O)Oc1cc(C(C)(C)C)c(SC2=C(O)OC(C)(CCc3ccc(O)cc3)CC2=O)cc1C (configuration not stated) | 6.2 | 4300 | – | – | – | – | – | – | 15 | 66000 | – | – | – | –
6 | Cc1cc(SC2=C(O)OC(C)(CCc3ccc(O)cc3)CC2=O)c(C(C)(C)C)cc1O (configuration not stated) | 6.5 | > 7000 | – | – | – | – | – | – | < 1 | 7000 | – | – | – | –
7 | Cc1cc(SC2=C(O)OC(CCc3ccc(N)cc3)(C(C)C)CC2=O)c(C(C)(C)C)cc1OS(=O)(=O)N(C)C (configuration not stated) | 3.9 | 740 | – | – | – | – | – | – | 86 | 64000 | – | – | – | –
8 | Cc1cc(SC2=C(O)OC(CCc3ccc(O)cc3)(C3CCCCC3)CC2=O)c(C(C)(C)C)cc1OS(=O)(=O)N1CCN(C)CC1 (configuration not stated) | 9.7 | 5100 | – | – | – | – | – | – | > 20 | > 100000 | – | – | – | –
9 | Cc1cc(SC2=C(O)O[C@](CCc3ccc(N)cc3)(C(C)C)CC2=O)c(C(C)(C)C)cc1CO | 1 | 200 | 30 | 33 | 3 | 4 | 16 | 16 | 1050 | – | 12 | 59 | 2 | 0.11

More lines, in order of falling IC50 [1], values ahead:

Row | IC50 [1] [nM] | EC50 [2] [nM] | inhibition at 100 µM (CYP3A4 [6]) [%] | inhibition at 100 µM (CYP2D6 [7]) [%] | inhibition at 1 µM (CYP2D6 [8]) [%] | inhibition at 1 µM (CYP3A4 [9]) [%] | inhibition at 10 µM (CYP3A4 [10]) [%] | inhibition at 10 µM (CYP2D6 [12]) [%] | Compound | selectivity ratio [3] | CC50 [4] [nM] | inhibition at 10 µM (CYP2C9 [5]) [%] | inhibition at 100 µM (CYP2C9 [11]) [%] | inhibition at 1 µM (CYP2C9 [13]) [%] | Ki [14] [nM]
10 | 26 | 4300 | – | – | – | – | – | – | CCNS(=O)(=O)Oc1cc(C(C)(C)C)c(SC2=C(O)OC(CCc3ccc(O)cc3)(c3ccccc3)CC2=O)cc1C (configuration not stated) | 15 | 66000 | – | – | – | –
11 | 7.1 | 2300 | – | – | – | – | – | – | Cc1cc(SC2=C(O)OC(C)(CCc3ccc(O)cc3)CC2=O)c(C(C)(C)C)cc1OS(=O)(=O)N1CCN(C)CC1 (configuration not stated) | > 44 | > 100000 | – | – | – | –
12 | 4.9 | 1100 | – | – | – | – | – | – | CCNS(=O)(=O)Oc1cc(C(C)(C)C)c(SC2=C(O)OC(CCc3ccc(O)cc3)(C(C)C)CC2=O)cc1C (configuration not stated) | > 91 | > 100000 | – | – | – | –
13 | 4.8 | 1400 | – | – | – | – | – | – | CCNS(=O)(=O)Oc1cc(C(C)(C)C)c(SC2=C(O)OC(CCc3ccc(O)cc3)(C3CCCCC3)CC2=O)cc1C (configuration not stated) | 48 | 67000 | – | – | – | –
14 | 4.3 | 630 | – | – | – | – | – | – | CCNS(=O)(=O)Oc1cc(C(C)(C)C)c(SC2=C(O)OC(CCc3ccc(N)cc3)(C(C)C)CC2=O)cc1C (configuration not stated) | 117 | 74000 | – | – | – | –
15 | 3.9 | 1650 | – | – | – | – | – | – | Cc1cc(SC2=C(O)OC(CCc3ccccc3)(C(C)C)CC2=O)c(C(C)(C)C)cc1OS(=O)(=O)N1CCN(C)CC1 (configuration not stated) | > 61 | > 100000 | – | – | – | –
16 | 3.4 | 700 | – | – | – | – | – | – | Cc1cc(SC2=C(O)OC(CCc3ccc(O)cc3)(C(C)C)CC2=O)c(C(C)(C)C)cc1OS(=O)(=O)N(C)C (configuration not stated) | 100 | 70000 | – | – | – | –
17 | 3.1 | 500 | 81 | 100 | 39 | 0 | 22 | 86 | Cc1cc(SC2=C(O)OC(CCc3ccc(O)cc3)(C(C)C)CC2=O)c(C(C)(C)C)cc1OS(=O)(=O)N1CCN(C)CC1 (configuration not stated) | > 200 | > 100000 | – | – | – | –
18 | 3 | 1200 | – | – | – | – | – | – | CCCNS(=O)(=O)Oc1cc(C(C)(C)C)c(SC2=C(O)OC(CCc3ccc(O)cc3)(C(C)C)CC2=O)cc1C (configuration not stated) | > 83 | > 100000 | – | – | – | –
19 | 2.6 | 770 | – | – | – | – | – | – | Cc1cc(SC2=C(O)OC(CCc3ccc(O)cc3)(C(C)C)CC2=O)c(C(C)(C)C)cc1OS(=O)(=O)N1CCOCC1 (configuration not stated) | 109 | 84000 | – | – | – | –
20 | 1.8 | 5200 | – | – | – | – | – | – | Cc1cc(SC2=C(O)OC(C)(CCc3ccc(O)cc3)CC2=O)c(C(C)(C)C)cc1OS(N)(=O)=O (configuration not stated) | 13 | 69000 | – | – | – | –
21 | 1.2 | 1100 | – | – | – | – | – | – | CNS(=O)(=O)Oc1cc(C(C)(C)C)c(SC2=C(O)OC(CCc3ccc(O)cc3)(C(C)C)CC2=O)cc1C (configuration not stated) | > 91 | > 100000 | – | – | – | –
22 | 1 | 560 | – | – | – | – | – | – | Cc1cc(SC2=C(O)OC(CCc3ccc(N)cc3)(C(C)C)CC2=O)c(C(C)(C)C)cc1OS(=O)(=O)N1CCN(C)CC1 (configuration not stated) | 127 | 71000 | – | – | – | –
